Results published in the METLIN SMRT retention time set (Domingo-Almenara et al. 2019).

Test: gradient 5% acetonitrile 3 min, to 50% in 2 min, to 85% in 15 min, held 3 min, 100 µL/min
Details: column: Zorbax Extend-C18 2.1 x 50 mm; eluents: water / acetonitrile, 0.1% formic acid
How it was run: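 Pure standards were analyzed in mixtures of ~100 molecules using HPLC coupled to a quadrupole time-of-flight mass spectrometer, in both positive and negative ionization mode. Separation used a Zorbax Extend-C18 column (2.1 × 50 mm, 1.8 μm) at 100 μL/min, with water and acetonitrile each containing 0.1% formic acid. Dead and dwell volumes were 40 μL and 900 μL, and data were collected over 3 months. Retention time was read from computationally picked adduct peaks, each inspected manually.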

| SMILES | RP-LC retention time [s] |
| --- | --- |
| CCOC(=O)c1noc2ncnc(Nc3cccc(C)c3C)c12 | 948 |
| O=C(Nc1cccc(Cl)c1)N1CCC(N2CCN(Cc3ccccc3)C(=O)C2=O)CC1 | 736 |
| CCOCC(=O)N1CCCn2ccnc2C1C1CCCC1 (stereo not given) | 587 |
| Cc1nc(OCC(=O)N2CCCCCC2)c2c(-c3ccc(F)cc3)noc2n1 | 1100 |
| C[C@H]1CN(C(=O)Nc2ccc(F)cc2)C[C@@H]1c1nc(-c2cccnc2)no1 | 760 |
| Cc1ccc(-c2cc3c4nn(CC(=O)NC5CCCC5)c(=O)n4ccn3n2)cc1C | 918 |
| Cc1nc(-c2cc(S(=O)(=O)Nc3cccc(F)c3)c(C)s2)sc1C | 1060 |
| CC(C)CNC(=O)COc1cccc2ccccc12 | 896 |
| Cc1nc(-c2cc(S(=O)(=O)NCCN3CCC(C)CC3)c(C)s2)sc1C | 718 |
| Cc1ccc(-n2nc3c(N4CCCC(C(=O)N5CCOCC5)C4)nnc(C)c3c2C)cc1 (stereo not given) | 736 |
| COc1ccc(OC)c(Nc2c(-c3ccc(Br)cc3)nc3cnccn23)c1 | 1000 |
| Cc1cc(C)c(C)c(S(=O)(=O)NCCc2cn(CC(C)C)c3ncccc23)c1C | 1120 |
| Cc1ccc(CNC(=O)c2cc3n(n2)CC(C)(C(=O)NCc2ccc(F)cc2)N(C)C3=O)cc1 (stereo not given) | 741 |
| O=C(Cc1csc(NC(=O)C2CCC(=O)N2)n1)NCCC1=CCCCC1 (stereo not given) | 643 |
| CCN1CCN(C(=O)C2Cc3cc(S(=O)(=O)N4CCCCC4)ccc3N2C(C)=O)CC1 (stereo not given) | 601 |
| N#Cc1ccc(Cl)cc1NC(=O)c1cccn(Cc2cccc(C(F)(F)F)c2)c1=O | 1090 |
| CC(O)(CCc1ccccc1)CNC(=O)c1ccc(F)cc1 (stereo not given) | 758 |
| CCOc1cccc(-c2noc(Cn3ccn4nc(-c5cccc(OC)c5)cc4c3=O)n2)c1 | 770 |
| COc1ccc(OC)c(CNC(=O)C2CCN(Cc3cn(C)c4ccc(Cl)cc34)CC2)c1 | 717 |
| Cc1cccc(NC(=O)Nc2nc(C)c(C(=O)NCc3ccc4c(c3)OCO4)s2)c1 | 1020 |
| O=C(NC1CCN(c2cc(-c3cccs3)[nH]n2)C1)c1cccc(OC(F)(F)F)c1 (stereo not given) | 828 |
| COc1ccc(-c2nc3ccccn3c2Nc2ccc3c(c2)OCCO3)cc1 | 719 |
| O=C(Cc1csc2nc(-c3ccccc3)cn12)Nc1cccc(F)c1 | 805 |
| Cc1ccc(C(=O)N2CC=C(C(=O)NC3CC3)CC2)cc1C | 797 |
| Cc1cc(C)cc(NC(=O)Cn2ccc3sccc3c2=O)c1 | 820 |
| COCCOCc1nc(C2CCN(S(=O)(=O)c3cccc4nsnc34)C2)no1 (stereo not given) | 769 |
| CCOc1ccccc1NC(=O)N1CCC2(CC1)NC(=O)c1ccc(F)cc1N2C | 817 |
| COc1cccc(NC(=O)c2c[nH]c3nc(C)ccc3c2=O)c1 | 791 |

| SMILES | RP-LC retention time [s] |
| --- | --- |
| Fc1ccc(-c2nnc(Cc3nc(-c4ccc(F)c(F)c4)no3)o2)cc1 | 1030 |
| CSCc1csc(NC(=O)NCc2ccc(F)cc2)n1 | 754 |
| CCCNC(=O)N1CC(c2nc(-c3ccccc3)no2)C2(CCOCC2)C1 (stereo not given) | 770 |
| COc1ccc(NC(=O)CCc2c(C)nn(-c3cc(N4CCCC4)ncn3)c2C)c(OC)c1 | 801 |
| O=C(CCc1ccccc1)NC1CCN(c2nnc3ccc(Cl)cn23)CC1 | 739 |
| CCCn1cc(C(=O)NCCCN(C)C)c(S(=O)(=O)N2CCN(c3ccc(Cl)cc3)CC2)n1 | 757 |
| O=C(c1ccc2cc[nH]c2c1)N1C[C@@H]2C[C@H]1C[C@@H]2NS(=O)(=O)c1cccs1 | 754 |
| CCC(CN(C)Cc1ccccc1)NS(=O)(=O)c1ccc2[nH]c(=O)ccc2c1 (stereo not given) | 600 |
| CCC(=O)N1CCCC1COc1ccc(C(=O)N2CCCC2)cc1 (stereo not given) | 712 |
| CC(Oc1ccccc1)C(=O)N1CC(c2nc(-c3ccsc3)nn2C)C1 (stereo not given) | 766 |
| O=C(NCCC1CCN(S(=O)(=O)c2ccc(F)cc2)CC1)Nc1ccc(F)cc1F | 935 |
| CCc1cc(C2CCCN2C(=O)NCc2ccccc2)on1 (stereo not given) | 766 |
| CCOc1ccc(C(=O)NC2(c3nc(CC)no3)CCCCC2)cc1OCC | 990 |
| Cc1c(Cl)cccc1NC(=O)C(=O)NC1CCCC1 | 964 |
| COc1ccc(CN(C)Cc2cc(=O)n3ccc(C)cc3n2)cc1OC | 587 |
| COC(=O)c1ccc2c(=O)n(-c3ccc(C)c(F)c3)c(N3CCCC3)nc2c1 | 1020 |
| CCc1noc(COC2CCCN(C(=O)NCc3ccco3)C2)n1 (stereo not given) | 722 |
| CCOc1ccc(-c2nc(C3CC(=O)N(c4ccc(F)cc4)C3)no2)cc1OCC (stereo not given) | 1050 |
| Cc1noc(C)c1CCC(=O)N1CCCCC1c1nncn1C (stereo not given) | 607 |
| COc1ccc(OC)c(S(=O)(=O)NCC(c2cccs2)N2CCc3ccccc32)c1 (stereo not given) | 1010 |
| Cc1cccc(-c2nnc(-c3cc(S(=O)(=O)N4CCOCC4)ccc3Cl)o2)c1 | 992 |
| CN1c2ccc(F)cc2C(=O)NC12CCN(C(=O)Cc1ccccc1)CC2 | 764 |
| O=C(CN1CCN(Cc2ccc(F)cc2)C1=O)NCc1cc(F)ccc1F | 806 |
| CCc1nnc2nc(N3CCN(C(=O)COc4ccc(OC)cc4)CC3)cc(C)n12 | 613 |
| CC1(C(=O)NCc2ccc(F)cc2)CN(S(C)(=O)=O)CC(=O)N1Cc1ccc(F)cc1 (stereo not given) | 841 |
| Cc1oc(-c2[nH]ncc2C(=O)N2CCOCC2)cc1S(=O)(=O)N1CCC(C)CC1 | 703 |
| COc1ccc(CNC(=O)Cn2nc3c(N4CCCCCC4)nccn3c2=O)cc1 | 679 |

Second part, the molecule after the results:

| RP-LC retention time [s] | SMILES |
| --- | --- |
| 754 | CC(C)Cn1nc2n(c1=O)CCN(S(=O)(=O)c1cccc3cccnc13)CC2 |
| 595 | O=C(NCC1CCN(S(=O)(=O)C2CC2)CC1)C1(c2ccc(F)cc2)CC1 |
| 1060 | CCn1ccc2cc(S(=O)(=O)N3CCCC(C(=O)NCc4ccc(OC(C)C)cc4)C3)ccc21 (stereo not given) |
| 736 | Cc1ccc(NCCN(C)C)c2c(=O)c3cc(O)ccc3sc12 |
| 647 | COc1cccc(-n2c(CN3CCN(c4ccccn4)CC3)nc3ccc([N+](=O)[O-])cc3c2=O)c1 |
| 1190 | Cc1nn(-c2ccc(F)cc2)c2nc(N3CCCC(C(=O)NCc4ccccc4Cl)C3)sc12 (stereo not given) |
| 594 | CC(=O)N1CCCC1c1nc2ccccc2n1CC(=O)N1CCCCC1 (stereo not given) |
| 866 | Cc1ccccc1NC(=O)N(C)Cc1ccsc1 |
| 837 | Cc1c(C(=O)NCC2CCCO2)cnn1-c1cc(-c2nc(C3CC3)no2)ccn1 (stereo not given) |
| 898 | CCc1nc(-c2c(C)cc(C)nc2NC(=O)c2cccc(Br)c2)no1 |
| 1220 | CCCCn1nnc(NCc2ccc(-c3cc(Cl)ccc3Cl)o2)n1 |
| 863 | COc1ccc(OC)c(NC(=O)Nc2cc(F)c3nc(N4CCOCC4)ccc3c2)c1 |
| 556 | Cc1ccnc(N2CCC(C(=O)NCCCN3CCCCCC3)CC2)n1 |
| 726 | Cc1ccc2nc(-c3ccc(N(C)C)cc3)c(Nc3ccc4c(c3)OCCO4)n2c1 |
| 653 | CN(C)CCCNc1ncnc2c1cnn2-c1cccc(Cl)c1 |
| 590 | CCOc1cc(=O)n2c(c1C(=O)N1CCN(C3CCCCC3)CC1)CCCCC2 |
| 584 | O=C(Cc1cc(-c2ccc(Cl)cc2)on1)NCCC1=CCCCC1 |
| 1010 | COc1cccc(Cc2nc(-c3cccc(-c4ccnn4C)c3)no2)c1 |

| RP-LC retention time [s] | SMILES |
| --- | --- |
| 602 | CCCN(CCC)C(=O)C1CCN(C(=O)c2ccccc2Cl)CC1 |
| 795 | CCc1ccc(CNC(=O)CC2CCN(C(=O)c3[nH]c(C)c(C(=O)OC)c3C)CC2)cc1 |
| 682 | O=C(Cn1ccc2ccn(CC3CC3)c2c1=O)N1CCOCC1 |
| 824 | Nc1cc(C2CCN(S(=O)(=O)c3cccc(Br)c3)CC2)no1 |
| 685 | CCOc1ccc(S(=O)(=O)N2CCCC(C(=O)NCc3cccnc3)C2)cc1C (stereo not given) |
| 653 | CCCc1noc(-c2cccn3c(CC(=O)N4CCSCC4)nnc23)n1 |
| 734 | O=C(c1ccc(-n2cnnn2)cc1)N1CCCc2ccccc21 |
| 721 | CCN(CC)C(=O)Cn1ccn2nc(-c3ccccc3)c(CO)c2c1=O |
| 602 | Cc1nc2c(c(=O)n1CC(=O)NC1CCCC1)CCN(Cc1ccccc1)C2 |
| 596 | COc1cc([C@@H]2c3cc4c(cc3[C@H](O)[C@@H](CO)[C@@H]2C(=O)NCCCN(C)C)OCO4)cc(OC)c1OC |
| 621 | Cc1cccc(OCC(=O)N2CCN(c3cc(C)n4cnnc4n3)CC2)c1 |
| 717 | O=C(N[C@H]1C[C@@H]2C[C@H]1N(C(=O)c1ccccc1Cl)C2)c1ccccc1 |
| 861 | O=C(Cn1ccn2nc(-c3ccccc3)c(CO)c2c1=O)N1CCCc2ccccc21 |
| 650 | CN(C)C(CNC(=O)c1cc(=O)c2cc(Cl)ccc2o1)c1ccccc1 (stereo not given) |
| 1210 | Cc1cc(N2CCCC2)n2nc(CN3CCN(c4ccccc4C)CC3)nc2n1 |
| 812 | Cc1ccc(S(=O)(=O)N2CCCC(CCC(=O)O)C2)cc1 (stereo not given) |
| 708 | O=C(c1cn2c(n1)COCC2)N1CCN(c2cccc(Cl)c2)CC1 |
